We go through one compound from patent US8614240B2, “Benzoxazole derivatives having inhibitory activity against interleukin-6, preparation method thereof, and pharmaceutical composition containing the same” (EWHA University-Industry Collaboration Foundation, priority 2010, dated 2013).

For test [1], the system named is IL-6 induced ERK phosphorylation. As to the kind of experiment: Test for inhibitory activity against ERK phosphorylation induced by IL-6 (Western blot, HepG2). In kind it is cell-based, human. The settings on record: HepG2, 30 μg/ml (FIG. 5). As for the experimental part: HepG2 cell was divisionally inoculated in 6-well plate, and then starved for 18 hours.
The starved cells were treated with the samples for one hour, and then stimulated with IL-6 or LIF (Upstate Biotechnology, USA) for 10 minutes. The specimen was treated with 5× cell lysis buffer (Promega) sometimes with vortexing under ice for 30 minutes. The cell lysate obtained as described under B in Experiment 1 (3) was dissolved in 8% SDS-PAGE gel, and transferred to the nitrocellulose membrane. This membrane was blocked with Tris-buffered solution (50 mM Tris-HCl (pH 7.4), 150 mM NaCl, 0.1% Tween 20) containing 5% non-fat dry milk at 4° C. Then, it was incubated together with an appropriate primary antibody (ERK) present in Tris-buffered solution (50 mM Tris-HCl (pH 7.4), 150 mM NaCl, 0.1% Tween 20) containing 5% non-fat dry milk, at room temperature for 1-2 hours. This membrane was washed five times with TBS buffer solution for 10 minutes, and incubated with 1:6000 diluted horseradish peroxidase-conjugated secondary antibodies for one hour. The membrane was washed 10 times with TBS buffer solution, and then mixed and incubated with the 1:1 mixture of HRP Substrate Luminol Reagent and HRP Substrate Peroxide Solution as ELC reagent (Millipore Corp. Ma USA). The chemiluminescent signals were visualized with X-ray film.

Test [2] concerns IL-6 reactive STAT3 reporter gene. As to the kind of experiment: IL-6 reactive STAT3 reporter gene test (pSTAT3-TA-Luc6 luciferase) in HepG2 cells. In kind it is cell-based. As to conditions: Homo sapiens. As for the experimental part:
A pSTAT3-TA-Luc6 construct, which comprises 8 more STAT3 DNA binding sequence copies as compared to pSTAT-3-TA-Luc and thus, enables to better reflect STAT3 reporter gene assay, was prepared. STAT3 DNA binding sequence was amplified using pSTAT3-TA-Luc plasmid (Clontech, Palo Alto, Calif.) as the template, and oligonucleotide ([…]. SEQ ID NO: 1 (containing Kpn I site)) and oligonucleotide ([…] GAAGCAACGTTC (containing Xho I site)) as forward primer and reverse primer, respectively, by means of a thermocycler. The amplified PCR product was cloned, separated, and then inserted into Kpn I/Xho I site of pSTAT3-TA-Luc plasmid.
Human hepatoma cell line, HepG2 cell, was incubated in MEM (Minimal Essential Medium, WelGENE Inc, Daegu, Korea) medium under water-saturated condition at 37° C., 5% CO2. To this medium was added 10% (v/v) fetal bovine serum, streptomycin (100 U/mL) and penicillin (100 U/mL). 6-Well cell culture plate was allowed to grow cells up to 80%, and then the specimen was pre-treated for one hour. Then, the medium was changed into 50 μL of serum-free medium, and the mixed solution of 0.1 μL pSTAT3-TA-Luc6 construct and 0.3 μL lipofectamin reagent was added to each well and then allowed to react for 3 hours to transfect cells with pSTAT3-TA-Luc6 construct. The medium was changed to a fresh medium, and the plate was incubated for 24 hours to transiently transfect cells. The transfected cells were serum-starved with 1% BSA/DMEM, and treated with the samples for one hour and then, after adding IL-6, incubated for 3 hours. The mixture was washed with PBS, shaken for one minute with addition of 50 μL of lysis buffer (promega luciferase assay system). After adding 30-100 μL of luciferase substrate (Promega luciferase assay system), the mixture was measured by a luminometer within 5 minutes.
Among others Compounds 1 and 3 as the materials having high inhibitory effect on IL-6 activity were used at various concentration to measure the degree of inhibitory effect, and the results thereof are as shown in FIGS. 2 and 3.
(In general: A reporter such as luciferase makes a cellular process visible.)

Each structure is given as a SMILES string.

What is called IC50 is the midpoint of a concentration-inhibition curve.

For the compound `CCc1ccc(Nc2nc3cc(NC(=O)c4ccccc4)ccc3o2)cc1` [Compound 3, N-(2-(4-ethylphenylamino)benzo[d]oxazol-5-yl)benzamide], in test [1], the “Influence on IL-6 induced ERK phosphorylation” value is listed as “did not influence on ERK phosphorylation”. Besides, in test [2] (HepG2, read-out: IC50 of IL-6 inhibitory activity (STAT3 reporter gene)), the IC50 was found to be 5.8 µM. The inhibition at 20 µg/mL in test [2] (HepG2, read-out: Inhibition % of IL-6 reactive STAT3 reporter gene activity, 20 ug/ml of sample, HepG2 cells) was greater than 80%.
